Experimental data: paper PMC9964319, “Half-Sandwich Rhodium Complexes with Releasable N-Donor Monodentate Ligands: Solution Chemical Properties and the Possibility for Acidosis Activation” (Pharmaceutics, 2023)
Like-named read-outs stand apart in the source and are kept apart here.

What was measured:
Format in all cases: cell-based
[1] = system: E. coli 32313 (resistant); assay: Antibacterial assay, MIC in 96-well plates at different pH
Text: (§1) The antibacterial effect was studied in two Gram-positive and in two Gram-negative strains. The Gram-positive S. aureus ATCC 25923 (ATCC, Manassas, VA, USA) is a methicillin-susceptible reference bacterial strain, while S. aureus 272123 is a clinical isolate and resistant to methicillin and ofloxacin (MRSA), which was given by Prof. Dr. Leonard Amaral (Institute of Hygiene and Tropical Medicine, Lisbon, Portugal). The Gram-negative strains were E. coli ATCC 25922 (ATCC, Manassas, VA, USA), which is sensitive to antibiotics, and E. coli 32313 (provided by the Institute of Clinical Microbiology, University of Szeged, Hungary), which is resistant to different antibiotics (trimethoprim/sulfamethoxazole, gentamicin, ciprofloxacin, and norfloxacin).
(§2) The minimum inhibitory concentrations (MICs) of the compounds were determined in 96-well plates based on the Clinical and Laboratory Standard Institute guidelines. The compounds were diluted in 100 μL of Mueller Hinton broth. Then, an overnight bacterial culture diluted 10,000 times in 100 μL of medium was added to each well, with the exception of the medium control wells. For each strain and each tested compound, four pH values were set (5, 6, 7, and 8). Each sample was triplicated.

[2] = system: E. coli ATCC 25922 (sensitive); assay: as above
Text: as §1, §2

[3] = system: S. aureus ATCC 25923 (methicillin-susceptible); assay: as above
Text: as §1, §2

S. aureus 272123 (MRSA) = assay: as above
Text: as §1, §2

[4] = system: Colo320 human colon adenocarcinoma cell line (doxorubicin-resistant); assay: MTT assay, cytotoxicity at pH 6 and 7
Experimental: (§3) All cell culture reagents were obtained from Sigma-Aldrich (Merck KGaA, Darmstadt, Germany) and plasticware from Sarstedt (Nümbrecht, Germany). Human colonic adenocarcinoma cell lines Colo205 (catalog number: ATCC-CCL-222) and its doxorubicin-resistant counterpart Colo320 (catalog number: ATCC-CCL-220.1) were purchased from LGC Promochem (Teddington, UK). The cells were cultured in RPMI 1640 medium supplemented with 10% heat-inactivated fetal bovine serum, 2 mM L-glutamine, 1 mM sodium pyruvate, and 100 mM HEPES buffer, adjusting the pH to 6.0 or 7.0. The cells were incubated at 37 °C in a 5% CO2–95% air atmosphere. The semiadherent human colon cancer cells were detached with Trypsin-Versene solution for 5 min at 37 °C.
(§4) The solutions were freshly prepared prior to measurements (see Section 2.1). […] Firstly, these samples were diluted in complete culture medium; then, two-fold serial dilutions of the compounds were prepared in 100 μL of RPMI 1640, horizontally. The semiadherent colonic adenocarcinoma cells were treated with Trypsin-Versene solution. They were adjusted to a density of 1 × 10^4 cells in 100 μL of RPMI 1640 medium and were added to each well, with the exception of the medium control wells. The final volume of the wells containing compounds and cells was 200 μL. Samples were triplicated. The pH of the medium was adjusted to 6.0 or 7.0.
(§5) The culture plates were incubated at 37 °C for 72 h; at the end of the incubation period, 20 μL of MTT solution (from a stock solution of 5 mg/mL) was added to each well. After incubation at 37 °C for 4 h, 100 μL of SDS solution (10% in 0.01 M HCI) was added to each well, and the plates were further incubated at 37 °C overnight. Cell growth was determined by measuring the optical density (OD) at 540/630 nm with a Multiscan EX ELISA reader (Thermo Labsystems, Cheshire, WA, USA). […] Curves were fitted using GraphPad Prism software (2022, version 9.4.1, Graphpad Software (LLC) d.b.a Dotmatics, San Diego, CA, USA) using the sigmoidal dose–response model (comparing variable and fixed slopes).
(§6) The pH-dependent solution speciation of the selected mixed-ligand complexes is an important feature in the hypothesized mechanism of action, and the modeling of acidosis is necessary for the in vitro anticancer assays. In order to find out the cytotoxicity difference based on the pH of the medium, cytotoxic activity was determined at pH 6 and 7 by MTT assay in two human colon adenocarcinoma cell lines (doxorubicin-sensitive Colo205 and doxorubicin-resistant Colo320). […] The mixed-ligand complexes were prepared prior to the measurements, as was already described in Section 2.1. With this method, the effect of the different counter ions could be avoided, and a more adequate comparison of the mixed-ligand complexes could be conducted.

[5] = system: Colo205 human colon adenocarcinoma cell line (doxorubicin-sensitive); assay: MTT assay, cytotoxicity at pH 6 and 7
Experimental: as §3, §4, §5, §6

[6] = Colo320, pH 6, 72 h incubation, read-out: IC50
[7] = Colo320, pH 7, 72 h incubation, read-out: IC50
[8] = Colo205, pH 6, 72 h incubation, read-out: IC50
[9] = Colo205, pH 7, 72 h incubation, read-out: IC50
[10] = Escherichia coli, ATCC25922, 24 h, pH 5
[11] = Escherichia coli, ATCC25922, 24 h, pH 6
[12] = Escherichia coli, ATCC25922, 24 h, pH 7
[13] = Escherichia coli, ATCC25922, 24 h, pH 8
[14] = Staphylococcus aureus, ATCC25923, 24 h, pH 7
[15] = Staphylococcus aureus, ATCC25923, 24 h, pH 8
[16] = Staphylococcus aureus, 24 h, pH 5
[17] = Staphylococcus aureus, 24 h, pH 6
[18] = Staphylococcus aureus, 24 h, pH 7
[19] = Staphylococcus aureus, 24 h, pH 8

SMILES: Cc1c(C)c(C)[c-](C)c1C.Clc1ccc(COC(Cn2ccnc2)c2ccc(Cl)cc2Cl)cc1.[Cl-].[Rh+2][O]c1cccc2cccnc12 (racemic) [[RhCp*(8HQH−1)Cl] +econ]
- MIC ([1]; E. coli resistant, pH 5, after one day, read-out: MIC): 50 µM
- MIC ([1]; E. coli resistant, pH 6, after one day, read-out: MIC): >100 µM
- MIC ([1]; E. coli resistant, pH 7, after one day, read-out: MIC): >100 µM
- MIC ([1]; E. coli resistant, pH 8, after one day, read-out: MIC): 50 µM
- MIC ([2]; E. coli sensitive, pH 5, after one day, read-out: MIC): 25 µM
- MIC ([2]; E. coli sensitive, pH 6, after one day, read-out: MIC): 25 µM
- MIC ([2]; E. coli sensitive, pH 7, after one day, read-out: MIC): 25 µM
- MIC ([2]; E. coli sensitive, pH 8, after one day, read-out: MIC): 25 µM
- MIC ([3]; S. aureus sensitive, pH 7, after one day, read-out: MIC): 0.39 µM
- MIC ([3]; S. aureus sensitive, pH 8, after one day, read-out: MIC): 0.39 µM
- MIC (S. aureus 272123 (MRSA); pH 5, after one day, read-out: MIC): 12.5 µM
- MIC (S. aureus 272123 (MRSA); pH 6, after one day, read-out: MIC): 6.25 µM
- MIC (S. aureus 272123 (MRSA); pH 7, after one day, read-out: MIC): 3.125 µM
- MIC (S. aureus 272123 (MRSA); pH 8, after one day, read-out: MIC): 3.125 µM
- IC50 [4, 6]: 4.52 ± 0.04 µM
- IC50 [4, 7]: 3 ± 0.1 µM
- IC50 ([5]; Colo205, pH 6, 72 h incubation, listed as [RhCp*(8HQH−1)(H2O)]^+ with econazole, read-out: IC50): ~1.8 µM
- IC50 [5, 8]: 1.8 ± 0.1 µM
- IC50 [5, 9]: 3.3 ± 0.1 µM

SMILES: Oc1cccc2cccnc12 [Complex 8HQ, 8-hydroxyquinoline, reference compound]
- MIC ([1]; Escherichia coli, 24 h, pH 5): > 100 µM
- MIC ([1]; Escherichia coli, 24 h, pH 6): > 100 µM
- MIC ([1]; Escherichia coli, 24 h, pH 7): > 100 µM
- MIC ([1]; Escherichia coli, 24 h, pH 8): > 100 µM
- MIC [2, 10]: > 100 µM
- MIC [2, 11]: > 100 µM
- MIC [2, 12]: > 100 µM
- MIC [2, 13]: > 100 µM
- MIC [3, 14]: 25 µM
- MIC [3, 15]: 25 µM
- MIC (S. aureus 272123 (MRSA); [16]): 100 µM
- MIC (S. aureus 272123 (MRSA); [17]): 6.25 µM
- MIC (S. aureus 272123 (MRSA); [18]): 6.25 µM
- MIC (S. aureus 272123 (MRSA); [19]): 6.25 µM

SMILES: c1ccncc1 [Py, pyridine, reference compound]
- MIC ([1]; Escherichia coli, 24 h, pH 5): > 100 µM
- MIC ([1]; Escherichia coli, 24 h, pH 6): > 100 µM
- MIC ([1]; Escherichia coli, 24 h, pH 7): > 100 µM
- MIC ([1]; Escherichia coli, 24 h, pH 8): > 100 µM
- MIC ([1]; Escherichia coli, read-out: MIC (no antibacterial effect)): > 100 µM
- MIC [2, 10]: > 100 µM
- MIC [2, 11]: > 100 µM
- MIC [2, 12]: > 100 µM
- MIC [2, 13]: > 100 µM
- MIC ([2]; Escherichia coli, ATCC25922, read-out: MIC (no antibacterial effect)): > 100 µM
- MIC [3, 14]: > 100 µM
- MIC [3, 15]: > 100 µM
- MIC ([3]; Staphylococcus aureus, ATCC25923, read-out: MIC (no antibacterial effect)): > 100 µM
- MIC (S. aureus 272123 (MRSA); [16]): > 100 µM
- MIC (S. aureus 272123 (MRSA); [17]): > 100 µM
- MIC (S. aureus 272123 (MRSA); [18]): > 100 µM
- MIC (S. aureus 272123 (MRSA); [19]): > 100 µM
- MIC (S. aureus 272123 (MRSA); Staphylococcus aureus, read-out: MIC (no antibacterial effect)): > 100 µM
- IC50 ([4]; Homo sapiens, COLO 320, 72 h, pH 6): > 100 µM
- IC50 ([4]; Homo sapiens, COLO 320, 72 h, pH 7): > 100 µM
- IC50 ([5]; Homo sapiens, COLO 205, 72 h, pH 6): > 100 µM
- IC50 ([5]; Homo sapiens, COLO 205, 72 h, pH 7): > 100 µM

SMILES: CC1=C(C)C(C)C(C)=C1C.Cn1ccnc1.Oc1cccc2cccnc12.[Rh+3] [[RhCp*(8HQH−1)(mim)]^+]
- IC50 [4, 6]: 6 ± 0.1 µM
- IC50 [4, 7]: 6.1 ± 0.2 µM
- IC50 [5, 8]: 7 ± 0.4 µM
- IC50 [5, 9]: 7.2 ± 0.2 µM

SMILES: CC1=C(C)C(C)C(C)=C1C.[Rh+3].c1ccncc1.c1cnc2c(c1)ccc1cccnc12 [[RhCp*(phen)(Py)]^2+]
- IC50 [4, 6]: 83.6 ± 4.1 µM
- IC50 [4, 7]: > 100 µM
- IC50 [5, 8]: > 100 µM
- IC50 [5, 9]: > 100 µM
